Residues, ends and D or L forms follow the SMILES beside them. *: point of attachment. Cbz = O=C(OCc1ccccc1)*
How the values were obtained:
ETV2 protein levels = assay: Proteasome inhibition experiment in R-VEC tubes; assay type: cell-based, human; conditions: R-VEC tubes at stabilization stage (4 weeks), 20 μM for 6 hrs vs DMSO, Western blot
Experimental: Cells were lysed into 1×SDS loading buffer (50 mM Tris-HCl pH 6.8, 5% beta-mercaptoethanol, 2% SDS, 0.01% bromophenol blue, 10% glycerol) followed by sonication (Bioruptor, 2×30 seconds at high setting). Proteins were solved on 5-15% gradient Tris-glycine SDS-PAGE and semi-dry transferred to nitrocellulose membranes. The following primary antibodies were used at indicated dilutions: Rap1 (CST, #2399, 1:1,000); RASGRP3 (CST, #3334, 1:1,000), GAPDH (CST, #5174, 1:10,000); AKT (CST, 34685, 1:5,000); p-S473-Akt (CST, #4060, 1:2,000); ETS1 (CST, #14069, 1,000); and ETV2 (Abcam, ab181847, 1:1,000). HRP-conjugated secondary antibodies and the ECL Prime Western Blotting System (GE Healthcare, RPN2232) were then used. Chemiluminescent signals were captured with a digital camera (Kindle Biosciences) and images of protein bands taken for quantification using ImageJ.
R-VEC vessels were prepared on Matrigel as described above. At stabilization stage (4 weeks), R-VEC tubes were treated with either 20 μM of MG132 (Selleck Chemicals) or DMSO for 6 hrs. The media was removed and the wells were washed once with PBS. R-VEC tubes were then incubated in a solution of 2 mg/ml Dispase (Sigma) for 45 mins at 37° C. to dissociate the tubes. 20 μM of MG132 (Selleck Chemicals) or DMSO was continuously provided during the dissociation period. […]

Rap1 = Rap1 inhibition experiment, R-VEC tube formation; assay type: cell-based, human; conditions: R-VECs, 10 μM, 4 weeks
Experimental: Tube formation assays for endothelial cells with or without ETV2 were set up in 24 wells as described above. The next day, Rap1 inhibitor (GGTI-298, Tocris) resuspended in DMSO was added to the wells at a 1:1000 dilution at the final concentration of 10 μM, while the same amount of DMSO was added to the control wells. The inhibitor and media were changed every other day for 4 weeks. Images were obtained and calculated as described above at 1 week and 4 week time points.

For CC(C)C[C@@H](C=O)NC(=O)[C@H](CC(C)C)NC(=O)[C@H](CC(C)C)NC(=O)OCc1ccccc1 [MG132] (Cbz-Leu-Leu-Leu-aldehyde), which “ETV2 protein levels restored” value (ETV2 protein levels) is on record?
The value was “six-fold”.

COC(=O)[C@H](CC(C)C)NC(=O)c1ccc(NC[C@@H](N)CS)cc1-c1cccc2ccccc12 [GGTI298] was tested. Which lumen (Rap1; confocal and electron microscopy) did it give?
Its lumen is “no lumen was present”.

What about the vessel formation (Rap1; vs DMSO) of the same compound?
The vessel formation was “significantly reduced”.
